Results published in patent publication US20220362174A1, “Use of R-enantiomer Beta2-agonists for prevent and treatment of pulmonary inflammation and inflammatory remodeling for reduced adverse effects” (priority 2019, published 2022).
“Also recorded” adds a separate entry of the source.

Key:
[1] = system: OVA-sensitized/OVA-challenged mice; assay: Airway responsiveness to methacholine by whole-body plethysmography (Penh) in OVA sensitized/challenged asthma model; type: in vivo; details: for airway bronchoconstriction/hyperactivity (Penh) in response to increased doses of Mch: Mch 2, 10, 20 mg/mL aerosol, rac-ter at double dose of R-ter
Protocol: (§1) OVA sensitized/challenged asthma model Mice were sensitized and challenged with ovalbumin (OVA) or normal saline. Briefly, mice were sensitized by intraperitoneal (i.p.) injection of 0.2 mL of 2% aluminum hydroxide (ALUM) gel containing 10 μg of OVA antigen on days 0 and 14. On days 21, 22 and 23, the mice were challenged with 1% OVA in saline (0.01 g/mL) for 20 min via. a nebulizer (PART Turbo boy). On day 26, a 20 min nebulized OVA challenge with 5% OVA in saline (0.05 g/mL) was conducted. The control group received 0.2 mL of saline with 2% ALUM administered intraperitoneally on days 0 and 14 before receiving 20 min nebulized normal saline without OVA on days 21, 22, 23 and 26.
In vivo airway responsiveness to methacholine (Mch) was assessed on day 28 in conscious, freely moving, spontaneously breathing mice by a whole-body plethysmography (Buxco Electronics Inc.). Mice were challenged with aerosolized saline or increasing concentrations of Mch (2, 10, 20 mg/mL) administered by an ultrasonic nebulizer for 2 min. Before Mch challenge, a 20 μL drug aerosol or saline was given to the mice because of the short-acting bronchodilating effect of terbutaline. The degree of bronchoconstriction was expressed as enhanced pause (Penh), a calculated dimensionless value that correlates with measurement of airway resistance, impedance, and intrapleural pressure. Penh values were recorded and averaged for 4 min after each nebulization challenge.

[2] = system: OVA-sensitized/OVA-challenged mice; assay: Whole blood analysis and eosinophils counts in BAL fluid; type: in vivo; details: for per cent of eosinophil counts in blood and BALF: OVA asthma mice after repeated inhalation
Protocol: as §1
After Methacholine challenge, mice were anesthetized, blood was collected for hematology analysis. Part of the collected blood was transferred to a heparinized Eppendorf tube, gently mixed and centrifuged under 845×g at 4° C. for 10 min to isolate plasma specimen for further analysis. Broncho alveolar lavage (BAL) was performed on the right lung using 0.3 mL of phosphate buffered saline (PBS) for four times. The saline was instilled into the lungs and allowed to equilibrate for 30 s before recovery, after centrifugation supernatants were stored at −80° C. for further cytokines analysis while cell pellet was suspended in 0.5 ml PBS and the eosinophils counts were performed using Wright's stain. Then all the organs (liver, right lung lobe, spleen, kidneys, heart, brain) were excised surgically and washed totally with ice-cold PBS to clear the blood and then blotted dry with filter paper. These tissue specimens were then accurately weighted and stored at −80° C. for detecting the drug distribution by LC-MS/MS. White blood cell (WBC) counts and differential WBC counts were analyzed using a ProCyte Dx Hematology Analyzer (IDEXX Laboratories) in 4 h after blood collection.

[3] = system: OVA-sensitized/OVA-challenged mice; assay: Lung histopathology (H&E, PAS, Masson) after R-, S-, rac-terbutaline; type: in vivo; details: for PAS stain of lung tissues: inflammatory and histopathological changes, collagen deposition: Example 3, vs model; for wall thickness of vessels / inflammatory remodeling processes: repeated inhalation, OVA mice; for PAS and Masson staining: subepithelial matrix glycoproteins, goblet cell hyperplasia, collagen deposition: vs OVA group; for smooth muscle hypertrophy, thickness of bronchial and vascular smooth muscle layer: vs OVA-treated mice
Protocol: as §1
Left lung tissue was obtained for histopathology and fixed in 10% formalin for 24 h, followed by paraffin-embedded and then were sectioned at 4 μm for routine staining with hematoxylin and eosin (H&E, Solarbio, Beijing, China), or with periodic acid-Schiff (PAS, Solarbio, Beijing, China), or submitted to Masson's trichrome staining (Baso, Zhuhai, China). Images of the stained lung sections were obtained by an Axisplus image-capturing system (Zeiss, Germany) and then a minimum of 3 bronchi (luminal diameter, 150-500 μm) were analyzed per mice for various parameters using an image analyzing computer system (IPP) by pathologists blinded to grouping. Histological score, airway smooth muscle thickness, PAS score (goblet cells hyperplasia), and collagen deposition were evaluated by a semi-quantitative scoring method.

OVA-sIgE = assay: Measurement of OVA-sIgE in plasma (ELISA); type: in vivo, mice; details: vs OVA group
Protocol: as §1
OVA-sIgE in plasma was measured using an enzyme-linked immunosorbent assay (ELISA) kit following the manufacturer's specification.

[4] = system: Th2 cytokines (IL-4, IL-5, IL-13); assay: Analysis of cytokine levels in BAL fluid (ELISA); type: in vivo, mice; details: for cytokines released (FIG. 3): pretreatment for 7 consecutive days; for IL-4 release in BALF / IL-13 release in BALF / IL-5 in BALF: vs OVA group
Protocol: as §1
BAL fluid samples were analyzed for the concentrations of mouse IL-4 and IL-5 using commercial ELISA kits according to the manufacturers instructions (R&D Systems, Minneapolis, Minn.). IL-13 was assayed in BAL fluid with a mouse IL-13 immunoassay kit (Abeam, Cambridge, UK) following the manufacturer's protocol.

NF-κB = assay: mRNA of NF-κB in the lung by quantitative real-time PCR; type: in vivo, mice; details: vs OVA group
Protocol: as §1
The level of mRNA of NF-κB in the lung were analyzed by quantitative real-time PCR analysis. The total RNA was extracted from lung tissue using RNaEX™ Total RNA Isolation Kit (Generay Biotech). The quality and quantity of RNA samples were assessed by NanoDrop ND-2000c spectrophotometer (Thermo Fisher Scientific, Inc., Wilmington, Del.). Total RNA (1 μg) was reverse transcribed into cDNA using cDNA Reverse Transcription Kit (Vazyme Biotech, Nanjing, China) according to the manufacturer's instruction. Real-time PCR reactions were performed using the 7500 real-time-PCR system (Applied Biosystems, Foster City, Calif., USA) with AceQ qPCR SYBR Green Master Mix (Vazyme Biotech, Nanjing, China). […]

p38 MAPK = assay: Western blot of lung tissue: p38 MAPK phosphorylation; type: in vivo, mice; details: vs OVA group
Protocol: as §1
(§2) Total protein from lung tissue was extracted according to the guidelines of manufacturer (Beyotime, China) and the concentrations were determined by BCA assay (Pierce). Primary antibodies against p38 MAPK (CST #8690), p-p38 MAPK (Thr180/Tyr182, CST #4511), NF-κB p65 (GeneTex #GTX102090), p-NF-κB p65 (S536, CST #3033) and GAPDH (Affinity #AF7021) as a standard were purchased and used.

NF-κB p65 = assay: Western blot of lung tissue: NF-κB p65 phosphorylation; type: in vivo, mice
Protocol: as §1, §2

NF-κB and MARK pathways = assay: NF-κB and MARK pathways, cytokines and ROS in LPS sepsis
From the text: LPS interacts with pathogen recognition receptors such as TLRs would also activate NF-κB and MARK pathways, which would further lead to an over-production of cytokines. […] The “cytokine storm” in sepsis involves in excessive release of INFs, IL-1B, IL-2,4,6,10,12, TNFa and MCP etc.
In sepsis, there are also over productions of chemokines such as ROS. […] This invention disclosed the similar effects of other RS-racemic, S-enantiomer or R-enantiomer beta2 agonists including: salbutamol, bambuterol, vilanterol, clenterol, salmeterol, formoterol, trantinterol and Indacaterol and other β2 agonists.

BALB/c mice = assay: Survival study after LPS challenge (sepsis); type: in vivo
Protocol: Treatment were given intraperitoneally for 3 consecutive days. One hour after the 3rd day treatments, LPS (15 mg/kg) was administered intraperitoneally. The animals were monitored. Survival rate was then recorded every 12 h for 144 hours.

[5] = 0.5 mg/kg + LPS, Saline + LPS 90.9

SMILES	airway bronchoconstriction/hyperactivity (Penh) in response to increased doses of Mch [1]	per cent of eosinophil counts in blood and BALF [2]	PAS stain of lung tissues: inflammatory and histopathological changes, collagen deposition [3]	wall thickness of vessels / inflammatory remodeling processes [3]	PAS and Masson staining: subepithelial matrix glycoproteins, goblet cell hyperplasia, collagen deposition [3]	smooth muscle hypertrophy, thickness of bronchial and vascular smooth muscle layer [3]	OVA-sIgE level in plasma (OVA-sIgE)	cytokines released (FIG. 3) [4]	NF-κB expression (mRNA transcript) in lung (NF-κB)	p38 MAPK phosphorylation (ratio of phosphorylated to total p38 MAPK) (p38 MAPK)	ratio of phosphorylated to total p65 NF-κB (NF-κB p65)	NF-κB and MARK pathways activated by LPS (expression or phosphorylation) (NF-κB and MARK pathways; LPS sepsis)	also measured
CC(C)(C)NC[C@@H](O)c1cc(O)cc(O)c1 [S-terbutaline]	further exacerbation of airway hyperactivity	significantly increased; also recorded: significantly higher; also recorded: the highest	further enhanced; also recorded: further worsened	further increase of wall thickness of vessels	further exacerbated	further enhanced	further increase	did the opposite	further enhanced	enhanced	enhanced	further enhanced	lung compliance ([1]; OVA induced asthma mice, baseline): reduced lung compliances; IL-4 release in BALF [4]: further increase; IL-13 release in BALF [4]: further increase; IL-4 release in BALF ([4]; listed as S-ter): further increased; IL-13 release in BALF ([4]; listed as S-ter): further increased; p38 MAPK phosphorylation (ratio of phosphorylated to total p38 MAPK) (p38 MAPK; listed as S-ter): further increased
CC(C)(C)NC[C@H](O)c1cc(O)cc(O)c1 [R-terbutaline]	attenuated significantly	significantly reduced	significantly ameliorate; also recorded: significantly alleviated or improved	significantly diminished	reversed and recovered toward normal	suppressed	markedly inhibited	significantly inhibited the release	effectively inhibited	decreased	decreased	significantly inhibited	baseline Penh value (baseline airway reactivity) ([1]; exposure to saline, after 7 days inhalation pretreatment, OVA group 0.80±0.12, Control group 0.55±0.08, rac-terbutaline at double molar amount): significantly reduce; influx of eosinophils into BALF ([2]; OVA asthma mice): significantly inhibited; degree of inflammatory cell infiltration (H&E, histological score) ([3]; rac-terbutaline at double dose): ameliorated; IL-5 in BALF [4]: significantly inhibited; IL-5 in BALF ([4]; listed as R-ter): significantly reduced; p38 MAPK phosphorylation (ratio of phosphorylated to total p38 MAPK) (p38 MAPK; listed as R-ter): markedly suppressed; Percent of death after LPS challenges, 12 h (BALB/c mice; 0.5 mg/kg + LPS, Saline + LPS 0): 0%; Percent of death after LPS challenges, 24 h (BALB/c mice; 0.5 mg/kg + LPS, Saline + LPS 36.4): 18.2%; Percent of death after LPS challenges, 36 h (BALB/c mice; 0.5 mg/kg + LPS, Saline + LPS 72.7): 27.3%; Percent of death after LPS challenges, 48 h (BALB/c mice; [5]): 36.4%; Percent of death after LPS challenges, 72 h (BALB/c mice; [5]): 36.4%; Percent of death after LPS challenges, 144 h (BALB/c mice; [5]): 36.4%; rate of mortality/death after LPS challenge (in words) (BALB/c mice; in comparison of LPS challenged group without pretreatment (mortality 90.9%)): greatly reduced or even diminished; over production of inducible NO (iNO) and another ROS (NF-κB and MARK pathways; LPS sepsis): significantly prevent and inhibit; production or release of cytokines (cytokine storm) (NF-κB and MARK pathways; sepsis): significantly reduced
